Source: patent publication US7951772B2, “Tumor-activated prodrug compounds and treatment” (La Region Wallonne, priority 1994, dated 2011)
Converted amounts (≈) assume the structure as drawn. Like-named read-outs stand apart in the source and are kept apart here.

Legend:
[1] = test system: female NMRI mice; test: In vivo acute toxicity, intraperitoneal route, 5 consecutive days; design: species or system mouse; conditions: for mortality: i.p. 5 consecutive days
Protocol: (§1) In the in vivo study of the acute toxicity of a medicinal product, determination of the median lethal dose (lethal dose for 50% of the animals or LD50) occupies an important place. […] The LD50 is a simple test in which increasing amounts of the test product are administered intravenously (i.v.) in a single injection and intraperitoneally (i.p.) in 5 injections, one injection daily for 5 consecutive days. The mortality of the animals is monitored as a function of time. At the end of the observation period, usually 30 days, the value of the LD50 is obtained by linear regression of the percentage mortality (on a probit scale) as a function of the logarithm of the dose administered (O. K. Chan and A. W. Hayes, Principles and methods for acute toxicity and eye irritancy, in Principles and methods of toxicology, Second edition. Ed. by A. W. Hayes, Raven Press, New York, USA (1989), pp. 169-220; D. Deprez-De Campeneere and A. Trouet. DNA-Anthracycline Complexes. I. Toxicity in mice and chemotherapeutic activity against L1210 Leukaemia off Daunorubicin-DNA and Adriamycin-DNA, Eur. J. Cancer, 16 (1980), pp. 981-986; H. E. Skipper, L. H. Schmidt, A. Goldin and J. M. Venditti. A manual on quantitative drug evaluation in experimental tumor systems, Cancer Chemother. Rep. 17 (1.962), pp. 1-178).
(§2) The acute toxicity of these two drugs was studied via the i.v. and i.p. routes on a single strain of mouse. Female NMRI mice (nonconsanguineous SPF-Han, approximately 5 weeks old and of mean weight 14.6 grams, supplied by IFFA-CREDO Belgium) remained in quarantine for one week.
(§3) Injections were performed systematically in the morning (single injection into the caudal vein for the i.v. route and injections on 5 consecutive days into the peritoneum for the i.p. route), using 1.0 ml syringes and sterile 30 G (i.v.) and 27 G (i.p) needles. All handling of animals was performed with gloves, and maintenance of the animals was performed systematically every week.
(§4) DNR was injected i.v. at doses of 10, 15, 20, 25, 30 and 35 mg/kg and i.p. at doses of 2.0; 2.5; 3.0 and 3.5 mg/kg.
(§5) The concentrations of the solutions were verified by spectrophotometry.
(§6) From the day of injection (DO) onwards, the mice were monitored clinically, with a daily record of dead mice. The weight of the mice was measured almost every day. The observation period was extended beyond one month so that the signs of late toxicity could be spotted more readily. At the end of the study, the surviving mice were sacrificed, according to the standards pertaining to animal experiments (D. B. McGregor. Ethics in experiments on animals, in Experiments in toxicology, First edition. Ed. by D. Anderson and D. M. Conning. The Royal Society of Chemistry and The Universities Press. Belfast, Ireland (1988), pp. 512-522).

[2] = test system: female NMRI mice; test: In vivo acute toxicity, intravenous route; design: species or system mouse; conditions: i.v., total dose of 60 mg/kg as two injections of 30 mg/kg on two consecutive days
[3] = test system: MRC5 fibroblast cells; test: Cytotoxicity with respect to MRC5 normal cells (72 h, Bradford protein); conditions: MRC5 cells; for IC50: 72 hours with compound then 48 hours without
Protocol: (§7) After 72 hours, the cells are incubated for 48 hours in the absence of anthracycline, and the cytotoxicity is determined by measuring the cellular proteins by Bradford's technique. […] The experimental points are adjusted to a sigmoid curve which enables the point of inflection, corresponding to the dose at which half of the cells survive (IC50), to be calculated.
(§8) After 72 hours, the cells are incubated for 48 hours in the absence of the anthracycline, and the cytotoxicity is determined by measuring the cellular proteins by Bradford's technique. […] The experimental points are adjusted to a sigmoid curve which enables the point of inflection, corresponding to the dose at which half of the cells survive (IC50), to be calculated.

[4] = test system: conditioned medium from anthracycline-resistant MCF7 cells (MCF7/ADR line); test: Degradation in conditioned medium from MCF7/ADR mammary carcinoma cells; format: in vitro ADME, human; conditions: 37 C, 1 hour
[5] = Degradation in human blood at 37 C
[6] = test system: MCF7/6 human mammary carcinoma cells; test: Accumulation in MCF7/6 tumor cells (HPLC of cell extracts)
Protocol: (§9) After various times, the accumulation of the prodrugs and of their fluorescent metabolites were determined by HPLC after extraction of the products at basic pH according to a method developed in the laboratory. Accumulations, expressed in μg/mg of cellular proteins, were compared with those of DNR and of DOX as well as with those of L-Leu-DNR and L-Leu-DOX. The metabolites were identified by determining the retention times of reference products synthesized in the laboratory.
(§10) After various times, the accumulation of the prodrugs and of their fluorescent metabolites was determined by HPLC after extraction of the products at basic pH according to a method developed in the laboratory. Accumulations, expressed in μg/mg of cellular proteins, were compared with those of DOX and of L-Leu-DOX. The metabolites were identified by determining the retention times of reference products synthesized in the laboratory.

[7] = test system: female NMRI mice; test: In vivo acute toxicity, intravenous route; design: species or system mouse; weight increase of the 3 surviving mice: dose or concentration left out as unconfirmed; conditions: i.v.; for mice dying: groups of 5
Protocol: as §1, §2, §3, §4, §5, §6

[8] = test system: conditioned medium from MCF7/6 mammary carcinoma cells; test: Degradation in conditioned medium from MCF7/6 mammary carcinoma cells (HPLC); conditions: share of each species by HPLC
[9] = test system: MRC5 fibroblast cells; test: Accumulation in MRC5 normal fibroblast cells (HPLC of cell extracts)
Protocol: At various times, the accumulation of the prodrugs and of their fluorescent metabolites was determined by HPLC after extraction of the products at basic pH according to a method developed in the laboratory. Accumulations, expressed in μg/mg of cellular proteins, were compared with those of DNR and of L-Leu-DNR. The metabolites were identified by determining the retention times of reference products synthesized in the laboratory.
as §10

[10] = test system: MCF7/6 human mammary carcinoma cells; test: Cytotoxicity with respect to MCF7/6 tumor cells (72 h, Bradford protein); conditions: MCF7/6 cells; for IC50: 72 hours with compound then 48 hours without
Protocol: as §7, §8

[11] = test system: MCF7/6 human mammary carcinoma cells
Protocol: as §7, §8

[12] = test system: MRC5 fibroblast cells
Protocol: as §7, §8

[13] = test system: conditioned medium from MCF7/6 mammary carcinoma cells
[14] = test system: conditioned medium from HepG2 hepatocarcinoma cells
[15] = test system: conditioned medium from HT29 colon carcinoma cells
[16] = test system: MCF7/6 human mammary carcinoma cells; remark: listed apart in the source
Protocol: as §9, §10

[17] = MCF7/6 cells, 6 hours of incubation, 10 μg eq. DNR/ml
[18] = MRC5 cells, 6 hours of incubation, 10 μg eq. DNR/ml

With `COc1cccc2c1C(=O)c1c(O)c3c(c(O)c1C2=O)C[C@@](O)(C(C)=O)C[C@@H]3O[C@H]1C[C@H](NC(=O)[C@H](CC(C)C)NC(=O)[C@H](C)NC(=O)[C@H](CC(C)C)NC(=O)CCN)[C@H](O)[C@H](C)O1` [β-Ala-Leu-Ala-Leu-DNR, β-alanyl-L-leucyl-L-alanyl-L-leucyldaunorubicin] the mortality ([1]; total dose of 60 mg/kg, groups of 5) was 2 mice die on day 22 and a third on day 35, the mortality ([1]; total doses of between 10 and 45 mg/kg) was “no mortality” and the “times less toxic than DNR (acute toxicity)” value ([1]; i.p. administration on 5 consecutive days) was “at least 30 times”. For the same molecule, the “LD50 (dose close to)” value ([1]; i.p. on 5 consecutive days, total dose) was roughly 60 mg/kg, the “increase in mean weight” value ([1]; i.p., 45 mg/kg, over the next 30 days after 7 stable days) was 20% and the “day on which surviving mice recover their initial weight” value ([1]; i.p., total dose of 60 mg/kg) was 36 days. The “decrease of mean weight” value ([1]; i.p., total dose of 60 mg/kg, in 15 days) was roughly 15%, the weight gain ([1]; i.p., total doses of between 10 and 45 mg/kg, in 40 days) was “+40%” and the mortality [2] was “no mortality”. The “times less cytotoxic than DNR” value ([3]; 72 hours) was 2230 times, the IC50 [3] was 23.14 ± 4.81 µg/mL (≈ 25.8 µM) and the metabolite found [4] was “the only metabolite now to be found is L-Leu-DNR”. For the same molecule, the “stability when incubated in human blood” value [5] was “stable”, the “level of accumulation (unchanged form)” value ([6]; MCF7/6 cells, 10 μg eq. DNR/ml, 24 hours of incubation) was ~1 μg/mg of cellular proteins and the “Intracellular concentration, DNR formed” value [6, 17] was 0.9 μg/mg cellular proteins. The “Intracellular concentration, Leu-DNR formed” value [6, 17] was 4.5 μg/mg cellular proteins, the “Intracellular concentration, Starting material” value [6, 17] was 0.3 μg/mg cellular proteins and the “DNR found intracellularly, % of the total intracellular fluorescence” value ([6]; MCF7/6 cells, after 24 hours of incubation) was “approximately 40%”. For the same molecule, the “intracellular levels of DNR in MCF7/6 tumor line, times as high as in MRC5 fibroblasts” value ([6]; after 24 hours of incubation) was 12 times, the “time of death after injection” value [7] was no more than 5 min and the “increase of mean weight” value ([7]; 30 mg/kg, in 40 days) was roughly 40%. The “time of death after injection” value ([7]; 120 mg/kg) was no more than 7 min, the mice dying ([7]; 120 mg/kg) was 5 and the mortality ([7]; dose of 30 mg/kg) was “no mortality”. For the same molecule, the mice dying [7] was 2, the “weight increase of the 3 surviving mice” value ([7]; in 40 days) was roughly 30% and the “Starting material or Metabolite, Time 0” value ([8]; β-Ala-Leu-Ala-Leu-DNR incubated at 37 C in MCF7/6 conditioned medium concentrated 20 of 40 times, time 0) was 100%. The “Starting material or Metabolite, After 1 hour” value ([8]; β-Ala-Leu-Ala-Leu-DNR incubated at 37 C in MCF7/6 conditioned medium, 1 hour) was 10%, the “Starting material or Metabolite, After 2 hours” value ([8]; β-Ala-Leu-Ala-Leu-DNR incubated at 37 C in MCF7/6 conditioned medium, 2 hours) was 2.6% and the level of accumulation ([9]; MRC5 cells, 10 μg eq. DNR/ml, 24 hours of incubation) was ~3.3 μg/mg of cellular proteins. The “Intracellular concentration, DNR formed” value [9, 18] was 0.08 μg/mg cellular proteins, the “Intracellular concentration, Leu-DNR formed” value [9, 18] was 3.1 μg/mg cellular proteins and the “Intracellular concentration, Starting material” value [9, 18] was 0.03 μg/mg cellular proteins. For the same molecule, the “cell entry, times less than DNR” value ([9]; after 6 hours) was 300 times, the “times less cytotoxic than DNR” value ([10]; 72 hours) was 244 times and the IC50 [10] was 22.00 ± 7.31 µg/mL (≈ 24.6 µM).
With `COc1cccc2c1C(=O)c1c(O)c3c(c(O)c1C2=O)C[C@@](O)(C(C)=O)C[C@@H]3O[C@H]1C[C@H](NC(=O)[C@@H](N)CC(C)C)C(O)[C@H](C)O1` (stereo partly drawn) [L-Leu-DNR, N-L-leucyldaunorubicin] the “times less cytotoxic than DNR” value [11] was 14 times, the IC50 [3] was 1.78 ± 0.23 µg/mL (≈ 2.78 µM) and the “times less cytotoxic than DNR” value [12] was 172 times. For the same molecule, the “Hydrolysis, MCF-7/6 Conditioned Medium” value [13] was “−”, the “Starting material or Metabolite, After 1 hour” value [13] was 83% and the “Starting material or Metabolite, After 2 hours” value [13] was 90%. For the same molecule, the “Starting material or Metabolite, Time 0” value [13] was 0%, the “main metabolites found, % of the total fluorescence” value [14] was 27% and the “main metabolites found, % of the total fluorescence” value [15] was 82%. The IC50 [10] was 1.30 ± 0.56 µg/mL (≈ 2.03 µM) and the “DNR found intracellularly, % of the total intracellular fluorescence” value [16] was 14%.
